{"source": "patent EP1954843B1", "about": "“LEACHING PROCESS IN THE PRESENCE OF HY[…] FOR THE RECOVERY OF A VALUE METAL FROM AN ORE” (Anglo Operations Limited, priority 2005, dated 2007)", "origin": "cited, not measured here", "conditions": "at 80°C"}
{"smiles": "[Cl-].[Cl-].[Zn+2]", "note": "[zinc chloride]", "values": [{"measurement": "soluble to the extent of", "value": "ca. 84.4 g/100g saturated solution"}]}
